# Measurements taken from article PMC11879040, “Advancing systemic toxicity risk assessment: Evaluation of a NAM-based toolbox approach” (Toxicological Sciences, 2024).
# Like-named read-outs stand apart in the source and are kept apart here.
# Key:
# [1] = tested on: Gamma-aminobutyric acid receptor subunit alpha-1 BZD site, GABRA1A (r); assay type: binding, rat; settings: control diazepam
# [2] = target: T1, Adenosine receptor A2a, ADORA2A (h) (Homo sapiens, UniProt P29274); experiment: IPP ADORA2A binding (agonist radioligand); settings: control NECA
# T1 construct: purchased Eurofins Cerep (SafetyScreen44-based IPP panel)
# [3] = target: T2, Estrogen receptor, ER1 (h) (Homo sapiens, UniProt P03372); experiment: IPP ER1 coactivator recruitment (agonist); assay type: biochemical; settings: estriol
# T2 construct: purchased Eurofins Cerep (SafetyScreen44-based IPP panel)
# T2 sequence (P03372 1-595): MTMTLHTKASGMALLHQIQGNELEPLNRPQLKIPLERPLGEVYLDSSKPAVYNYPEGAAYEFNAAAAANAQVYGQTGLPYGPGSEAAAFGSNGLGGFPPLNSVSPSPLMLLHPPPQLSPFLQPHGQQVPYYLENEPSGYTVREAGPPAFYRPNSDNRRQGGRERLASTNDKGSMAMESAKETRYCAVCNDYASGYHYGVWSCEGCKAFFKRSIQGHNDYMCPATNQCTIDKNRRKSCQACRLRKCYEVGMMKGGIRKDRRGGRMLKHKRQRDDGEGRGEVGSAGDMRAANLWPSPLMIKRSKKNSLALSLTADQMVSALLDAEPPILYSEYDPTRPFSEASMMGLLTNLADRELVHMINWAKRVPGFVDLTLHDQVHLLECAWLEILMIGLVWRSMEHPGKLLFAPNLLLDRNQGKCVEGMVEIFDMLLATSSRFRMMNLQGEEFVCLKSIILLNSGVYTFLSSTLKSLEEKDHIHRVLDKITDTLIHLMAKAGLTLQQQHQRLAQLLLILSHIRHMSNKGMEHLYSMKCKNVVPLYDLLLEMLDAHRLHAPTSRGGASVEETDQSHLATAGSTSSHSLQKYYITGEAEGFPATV
# [4] = target: T2, Estrogen receptor, ER1 (h); experiment: IPP ER1 coactivator recruitment (antagonist); assay type: biochemical; settings: estriol
# [5] = tested on: Thyroid hormone receptor alpha, THRA (h); experiment: IPP THRA coactivator recruitment (agonist); assay type: biochemical, human; settings: agonist, T3
# Tubulin (r) = experiment: IPP Tubulin binding; design: species or system rat; settings: ligand/control Colchicine
# HepG2 cells [6] = experiment: Cell stress panel (CSP), 24 h, 8 concentrations, BIFROST global PoD; assay type: cell-based; settings: HepG2; cell stress panel PoD
# Procedure: Compounds were tested using the previously developed cell stress panel ([Hatherell et al. 2020]) and the expanded biomarker panel outlined in Middleton et al. HepG2 cells were treated with all compounds for 24 h across 8 concentrations prior to biomarker analysis. The same plate layout and number of replicates (3 biological and 2 technical) were used as previously for each assay within the panel.
# HepG2 cells [7] = experiment: High-throughput transcriptomics (HTTr, TempO-Seq), HepG2, 24 h; assay type: cell-based, human; settings: HepG2; for pod_httr_bifrost PoD: HTTr BIFROST PoD; for podl_path_minbmd PoD: HTTr minimum pathway BMD(L)
# Procedure: (§1) HepG2, HepaRG, and MCF7 cells were treated with each compound for 24 h across a dose range of 7 concentrations and lysed using TempO-Seq lysis buffer (BioSpyder Technologies, proprietary kit, see [Middleton et al. 2022] for method details). Sequencing was performed using TempO-Seq (BioClavis) version 2 of the human whole transcriptome panel and analyzed as described previously in Middleton et al.
# HepaRG cells = experiment: High-throughput transcriptomics (HTTr, TempO-Seq), HepaRG, 24 h; assay type: cell-based, human; settings: HepaRG; for pod_httr_bifrost PoD: HTTr BIFROST PoD; for podl_path_minbmd PoD: HTTr minimum pathway BMD(L)
# Procedure: as §1
# MCF7 cells = experiment: High-throughput transcriptomics (HTTr, TempO-Seq), MCF7, 24 h; assay type: cell-based, human; settings: MCF-7; for pod_httr_bifrost PoD: HTTr BIFROST PoD; for podl_path_minbmd PoD: HTTr minimum pathway BMD(L)
# Procedure: as §1
# [8] = PBK model plasma Cmax estimate (Gastroplus 9.8; levels L1, L2, L3); design: species or system human; settings: therapeutic uses
# [9] = tested on: 63 targets with known safety liabilities; experiment: In vitro pharmacological profiling (IPP) panel, screening at 10 or 100 µM and dose response, minimum IC50/AC50; assay type: biochemical; settings: lowest AC50 across IPP panel (systemic targets); cell_type -; read-out: ipp_lowest_ac50_systemic PoD
# [10] = tested on: Glutamate receptor ionotropic NMDA 1 non-selective, GRIN1 (r); settings: control CGS 19755
# [11] = target: T3, Pregnane X receptor PXR, NR1I2 (h) (Homo sapiens, UniProt O75469)
# T3 sequence (O75469 1-434): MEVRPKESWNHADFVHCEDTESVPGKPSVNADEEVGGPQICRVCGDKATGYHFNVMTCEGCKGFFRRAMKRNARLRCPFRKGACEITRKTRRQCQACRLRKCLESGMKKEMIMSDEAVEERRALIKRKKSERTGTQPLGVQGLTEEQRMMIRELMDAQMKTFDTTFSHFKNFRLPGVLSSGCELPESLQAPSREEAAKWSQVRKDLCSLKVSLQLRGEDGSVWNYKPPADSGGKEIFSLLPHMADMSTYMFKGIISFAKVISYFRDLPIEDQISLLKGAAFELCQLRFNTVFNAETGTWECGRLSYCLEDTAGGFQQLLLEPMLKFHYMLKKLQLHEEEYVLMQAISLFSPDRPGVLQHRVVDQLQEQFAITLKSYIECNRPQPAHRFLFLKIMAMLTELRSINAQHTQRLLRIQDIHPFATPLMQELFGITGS
# [12] = human
# rat = settings: rat, ref ToxRefDB/Paul-Friedman et al. (2020)/regulatory opinions, cited from earlier work
# [13] = cited from earlier work
# [14] = at the given pH, single value or median, cited from earlier work
# [15] = PBK level L2; taken or scaled from references (median where several); ref [6],[7],[10],[19]; cited from earlier work
# [16] = hepatic intrinsic clearance (Clint); settings: PBK level L3; optimised against clinical data; per chemical [8],[9],[14],[16],[22],[24],[25],[29],[30],[32]
# [17] = Assignment of risk classifications to benchmark chemical-exposure scenarios; settings: for risk: from table S1
# [18] = tested on: Potassium Voltage-Gated Channel Kv non-selective, KCNQ1 (r); experiment: IPP KCNQ1 binding (antagonist radioligand); design: species or system rat; settings: IPP screening at 100 uM; control α-dendrotoxin
# [19] = tested on: Sodium channel protein type 5 subunit alpha (site 2), SCN5A (r); assay type: binding, rat; settings: IPP screening at 100 uM; control veratridine
# [20] = target: Potassium voltage-gated channel subfamily H member 2 hERG, KCNH2 (h) (Homo sapiens, UniProt Q12809); settings: human
# [21] = PBK input, ref [11], cited from earlier work
# [22] = PBK input, levels L2/L3; ref [5]; cited from earlier work
# [23] = unbound fraction in plasma (fup); settings: PBK input, levels L2/L3; median of [2] internal data (unpublished) and [10]
# [24] = Oral 200 mg solution, fasted, 23 healthy male, validation, ref Huang et al. 1986
# [25] = Oral 200 mg suspension, fasted, 23 healthy male, validation, ref Huang et al. 1986
# [26] = Oral 200 mg tablet, fasted, 23 healthy male, validation, ref Huang et al. 1986
# [27] = Oral 200 mg tablet, fed, 6 healthy male, calibration, ref Daneshmend et al. 1981
# [28] = Oral 200 mg tablet, fed, 8 healthy male, validation, ref Daneshmend et al. 1983
# [29] = 100 uM, * denotes assay interference (2-Amino-6-chloro-4-nitrophenol, HC Red 3)
# T1 sequence (P29274 whole entry): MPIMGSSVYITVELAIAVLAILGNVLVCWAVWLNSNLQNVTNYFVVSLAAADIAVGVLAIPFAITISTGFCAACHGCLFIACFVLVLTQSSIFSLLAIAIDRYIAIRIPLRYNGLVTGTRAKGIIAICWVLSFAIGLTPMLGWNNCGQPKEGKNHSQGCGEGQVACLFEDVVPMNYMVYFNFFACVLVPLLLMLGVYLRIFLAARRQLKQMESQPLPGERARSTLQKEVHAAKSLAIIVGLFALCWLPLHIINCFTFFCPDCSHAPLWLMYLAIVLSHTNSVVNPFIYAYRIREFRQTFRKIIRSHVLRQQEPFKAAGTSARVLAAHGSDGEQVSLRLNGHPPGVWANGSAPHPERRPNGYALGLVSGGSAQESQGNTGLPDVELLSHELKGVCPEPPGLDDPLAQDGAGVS
# Potassium voltage-gated channel subfamily H member 2 hERG, KCNH2 (h), sequence (Q12809 whole entry): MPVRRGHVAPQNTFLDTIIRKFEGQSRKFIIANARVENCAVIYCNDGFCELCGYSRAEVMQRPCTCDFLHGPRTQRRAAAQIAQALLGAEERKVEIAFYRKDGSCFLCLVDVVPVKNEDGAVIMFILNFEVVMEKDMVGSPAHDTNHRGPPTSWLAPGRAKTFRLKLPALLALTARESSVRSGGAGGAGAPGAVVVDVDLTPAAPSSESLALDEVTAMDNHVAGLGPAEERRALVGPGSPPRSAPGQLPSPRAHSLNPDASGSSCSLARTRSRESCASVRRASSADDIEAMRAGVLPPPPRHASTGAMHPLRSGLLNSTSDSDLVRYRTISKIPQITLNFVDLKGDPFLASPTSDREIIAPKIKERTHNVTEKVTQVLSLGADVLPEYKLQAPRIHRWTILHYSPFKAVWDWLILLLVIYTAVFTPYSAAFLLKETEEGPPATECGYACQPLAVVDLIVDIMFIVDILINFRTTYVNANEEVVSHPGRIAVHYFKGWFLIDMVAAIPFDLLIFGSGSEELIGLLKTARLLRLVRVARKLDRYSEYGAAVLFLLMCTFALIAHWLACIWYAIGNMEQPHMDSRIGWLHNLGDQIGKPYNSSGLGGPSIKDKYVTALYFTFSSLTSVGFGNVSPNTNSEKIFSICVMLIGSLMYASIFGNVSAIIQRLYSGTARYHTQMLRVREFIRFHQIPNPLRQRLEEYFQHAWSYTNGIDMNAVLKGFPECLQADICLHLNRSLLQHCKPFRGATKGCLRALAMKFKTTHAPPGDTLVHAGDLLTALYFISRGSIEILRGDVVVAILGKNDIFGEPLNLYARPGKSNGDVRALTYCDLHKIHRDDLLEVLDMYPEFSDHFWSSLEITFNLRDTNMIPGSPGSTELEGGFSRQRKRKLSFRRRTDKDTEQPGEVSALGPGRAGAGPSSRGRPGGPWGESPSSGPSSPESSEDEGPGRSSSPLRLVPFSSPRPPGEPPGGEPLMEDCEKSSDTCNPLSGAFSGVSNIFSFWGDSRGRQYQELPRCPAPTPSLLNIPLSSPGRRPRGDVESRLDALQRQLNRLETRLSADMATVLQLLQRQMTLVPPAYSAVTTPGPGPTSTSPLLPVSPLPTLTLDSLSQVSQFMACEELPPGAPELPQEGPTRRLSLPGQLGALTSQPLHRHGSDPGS
smiles,measurement,setting,value
"CC(=O)N1CCN(c2ccc(OC[C@H]3CO[C@](Cn4ccnc4)(c4ccc(Cl)cc4Cl)O3)cc2)CC1 [Ketoconazole, 1-{4-[4-({(2R,4S)-2-(2,4-Dichlorophenyl)-2-[(1H-imidazol-1-yl)methyl]-1,3-dioxolan-4-yl}methoxy)phenyl]piperazin-1-yl}ethan-1-one]",Specific binding,[1]; IPP screening at 10 uM,15.5%
same,Specific binding,[2]; IPP screening at 10 uM,2.1%
same,"IPP screening %, Coactivator recruitment",[3]; 10 uM,-1.0%
same,"IPP screening %, Coactivator recruitment",[4]; 10 uM,24.0%
same,"IPP screening %, Coactivator recruitment",[5]; 10 uM,1.0%
same,"IPP screening %, Specific binding",Tubulin (r); 10 uM,-15.0%
same,pod_cell_stress PoD,HepG2 cells [6],0.1454 µM
same,pod_httr_bifrost PoD,HepG2 cells [7],0.0007156 µM
same,podl_path_minbmd PoD,HepG2 cells [7],0.9153 µM
same,pod_httr_bifrost PoD,HepaRG cells,0.01699 µM
same,podl_path_minbmd PoD,HepaRG cells,0.1535 µM
same,pod_httr_bifrost PoD,MCF7 cells,0.1915 µM
same,podl_path_minbmd PoD,MCF7 cells,0.1648 µM
same,underprediction of the L3 result at L2 (Cmax),[8],≥ 5 fold
same,AC50,[9],380 nM
same,Specific binding,[10]; IPP screening at 10 uM,2.7%
same,IPP Dose Response PoD: PXR antagonist,[11],"[7.8,21.8]"
same,Fup,[12],0.1%
same,PoD (NOEL),"rat; 28 days, changes in thyroid hormone levels",6.25 mg/kg bw/day
same,Reported AUC0-t,[13]; [24],18170 ng·h/mL
same,Reported cmax,[13]; [24],5.16 µg/mL
same,Reported tmax,[13]; [24],1 h
same,Reported AUC0-t,[13]; [25],15730 ng·h/mL
same,Reported cmax,[13]; [25],4.66 µg/mL
same,Reported tmax,[13]; [25],1 h
same,Reported AUC0-t,[13]; [26],14740 ng·h/mL
same,Reported cmax,[13]; [26],3.26 µg/mL
same,Reported tmax,[13]; [26],2 h
same,Reported AUC0-t,[13]; [27],16940 ng·h/mL
same,Reported cmax,[13]; [27],3.573 µg/mL
same,Reported tmax,[13]; [27],2.475 h
same,Reported AUC0-t,[13]; [28],10330 ng·h/mL
same,Reported cmax,[13]; [28],3.636 µg/mL
same,Reported tmax,[13]; [28],1.28 h
same,Aqueous Solubility,"[14]; PBK level L2, ref [1],[4],[5],[10],[11],[17],[26]",42 µg/mL
same,Aqueous Solubility,"[14]; PBK level L3, ref [4],[5],[10],[11]",42 µg/mL
same,Intrinsic Liver Clearance,[15],1620.2 L/h
same,Intrinsic Liver Clearance,[16],10077 L/h
same,risk,"[17]; Dermal, Therapeutic, 2% daily, Shampoo, Exp2",0
same,risk,"[17]; Dermal, Therapeutic, 2% twice weekly, Shampoo, Exp1",0
same,risk,"[17]; Oral, 200 mg/day for fungal infection, Tablet, Exp4",1
same,risk,"[17]; Oral, Therapeutic, 1200mg/day, Tablet, Exp3",1
"CC(C)[C@H](N)C(=O)O [L-valine, L-Valine]",Specific binding,[18],15.0%
same,Specific binding,[1]; IPP screening at 100 uM,1.9%
same,Specific binding,[19],12.2%
same,Specific binding,[2]; IPP screening at 100 uM,-4.2%
same,"IPP screening %, Coactivator recruitment",[3]; [29],0.0%
same,"IPP screening %, Coactivator recruitment",[4]; [29],-2.0%
same,"IPP screening %, Coactivator recruitment",[5]; [29],2.0%
same,"IPP screening %, Specific binding",Tubulin (r); 100 uM,2.0%
same,pod_cell_stress PoD,HepG2 cells [6],39.7854 µM
same,pod_httr_bifrost PoD,HepG2 cells [7],316.528 µM
same,podl_path_minbmd PoD,HepG2 cells [7],625 µM
same,pod_httr_bifrost PoD,HepaRG cells,162.177 µM
same,podl_path_minbmd PoD,HepaRG cells,351.712 µM
same,pod_httr_bifrost PoD,MCF7 cells,26.9475 µM
same,podl_path_minbmd PoD,MCF7 cells,43.6766 µM
same,Specific binding,[10]; IPP screening at 100 uM,0.4%
same,"IPP screening %, Specific binding",[20],-3.8%
same,logP,physchem,-2.21
same,PoD (NOAEL),rat; repeat dose,666 mg/kg bw/day
same,pKa Value ACID,[21]; level L2,2.3
same,pKa Value BASE,[21]; levels L2/L3,9.55
same,Risk Classification,[17]; Oral 26 mg/kg bw/day,Low risk
same,Risk Classification,[17]; Oral 4000 mg/day,Low risk
same,risk,"[17]; Oral, 26 mg/kg mean requirements, Tablet, Exp1",0
same,risk,"[17]; Oral, Dietary 4000 mg/day, Food & Drink, Exp2",0
CN(C)[C@@H]1C(O)=C(C(N)=O)C(=O)[C@@]2(O)C(O)=C3C(=O)c4c(O)cccc4[C@@](C)(O)[C@H]3[C@H](O)[C@@H]12 [Oxytetracycline],logP/D,[22],-1.307
same,Fup,[23],68.88%
